Source: patent US20110230493A1, “1-OXA-8-Azaspiro [4,5] Decabe-8-Carboxamide Compounds as FAAH Inhibitors” (Pfizer Inc., priority 2008, published 2011)

Legend:
rat FAAH = molecular target: T1, rat FAAH (Rattus norvegicus, UniProt P97612); test: FAAH assay, rat FAAH enzyme inactivation (kinact/Ki); format: biochemical; conditions: oleamide 50 μM, 30° C.; for kinact/KI: pH 7.4, in vitro, read-out: rFAAH kinact/Ki
T1 construct: made in house; host or cells: E. coli
T1 sequence (P97612 1-579): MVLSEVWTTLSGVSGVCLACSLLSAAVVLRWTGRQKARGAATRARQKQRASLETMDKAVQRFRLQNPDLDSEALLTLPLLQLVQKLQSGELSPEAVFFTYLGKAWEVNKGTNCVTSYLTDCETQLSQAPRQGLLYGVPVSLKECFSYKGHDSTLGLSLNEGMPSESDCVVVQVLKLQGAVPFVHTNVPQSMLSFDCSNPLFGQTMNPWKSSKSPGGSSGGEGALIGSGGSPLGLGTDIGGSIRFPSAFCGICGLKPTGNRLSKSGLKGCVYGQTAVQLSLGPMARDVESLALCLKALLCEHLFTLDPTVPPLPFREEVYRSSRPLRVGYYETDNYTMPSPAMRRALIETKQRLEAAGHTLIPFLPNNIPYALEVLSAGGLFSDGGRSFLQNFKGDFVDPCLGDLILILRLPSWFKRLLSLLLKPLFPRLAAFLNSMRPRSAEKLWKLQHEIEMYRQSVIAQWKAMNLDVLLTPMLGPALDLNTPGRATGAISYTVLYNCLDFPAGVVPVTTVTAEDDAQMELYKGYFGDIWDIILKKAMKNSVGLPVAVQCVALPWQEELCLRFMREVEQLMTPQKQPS
Procedure: (§1) The FAAH assay was carried out in 384-well clear polystyrene plates (Evergreen Scientific) in a total volume of 50 μl per well in a manner similar to that described by Mileni et al., Proc. Nat. Acad. Sci. 2008, 105, 12820-12824. All percents are by volume. Serial dilutions of compound were initially prepared in 100% DMSO, and then diluted two-fold into HPLC-grade H2O to give 50% DMSO. To each well, was placed the reaction mixture (40 μl) containing 1-4 nM FAAH, 50 mM NaPi, pH 7.4, 3 mM α-ketoglutarate, 0.15 mM NADH, 7.5 U/ml glutamate dehydrogenase, 2 mM ADP, 1 mM EDTA, and 0.1% Triton X-100 (The concentration shown for each component is the final concentration in the assay). To this mixture, was added 5 μl of a compound of Examples 1 to 101 at various concentrations in 50% DMSO (or 5 μl 50% DMSO for controls). This was immediately followed by the addition of 5 μl oleamide (500 μM) dissolved in 75% EtOH/25% DMSO and the reaction mixture was mixed for 1.5 min. The final concentrations of DMSO and EtOH in the assay were each 7.5%. The reactions were incubated at 30° C. and the absorbance at 340 nm was collected over a period of 90 min with readings taken in 30-second intervals using SpectraMax Plus^384 Microplate Spectrophotometer (Molecular Devices, Sunnyvale, Calif.). The human FAAH and rat FAAH used in the assay was prepared as described in the patent application WO 2006/067613 using wild-type E. coli cells transformed in St. Louis, Mo., U.S.A. The purity of the enzyme was greater than 98% based on an analysis by SDS-polyacrylamide gel electrophoresis followed by Coomassie Blue staining.
(§2) Reaction progress curves were corrected for the non-enzymatic oxidation of NADH by subtraction of absorbancies at each time point obtained from control reactions containing no FAAH enzyme. The loss of enzyme activity as a function of time is well-described by the following mathematical equation (1) for a mono-exponential decay: […]
(§3) where At represents the absorbance at time t, A0 represents the absorbance at time zero, and C represents a constant. Observed rates of enzyme inactivation (kobs) were determined from the non-linear reaction progress curves by fitting the corrected absorbancies to an equation for a mono-exponential decay using the third-party Microsoft Excel plug-in, XLfit (IDBS Limited). Secondary plots of kobs vs. inhibitor concentration were prepared from kobs values obtained from progress curves. Second-order rates for enzyme inactivation, expressed as kinact/Ki (M^−1 s^−1), were calculated from the slopes from linear regression analysis of the secondary plot of kobs vs. inhibitor concentration as defined in following equation (2), where [I]<<Ki:
(§4) The concentration of substrate in the assay was equal to the Km for oleamide of 50 μM. Therefore, reported kinact/Ki values are obtained by multiplying resulting slopes by a factor of two (i.e. slope=kinact/(Ki*2)).
(§5) Table 1, below, lists human FAAH (hFAAH) and rat FAAH (rFAAH) enzyme inhibition values for Examples 1-101 as a ratio of kinact/Ki (M^−1 s^−1).

human FAAH = molecular target: T2, human FAAH (Homo sapiens, UniProt O00519); test: FAAH assay, human FAAH enzyme inactivation (kinact/Ki); format: biochemical; conditions: pH 7.4, in vitro, oleamide 50 μM, 30° C., read-out: hFAAH kinact/Ki
T2 construct: made in house; host or cells: E. coli
T2 sequence (O00519 1-579): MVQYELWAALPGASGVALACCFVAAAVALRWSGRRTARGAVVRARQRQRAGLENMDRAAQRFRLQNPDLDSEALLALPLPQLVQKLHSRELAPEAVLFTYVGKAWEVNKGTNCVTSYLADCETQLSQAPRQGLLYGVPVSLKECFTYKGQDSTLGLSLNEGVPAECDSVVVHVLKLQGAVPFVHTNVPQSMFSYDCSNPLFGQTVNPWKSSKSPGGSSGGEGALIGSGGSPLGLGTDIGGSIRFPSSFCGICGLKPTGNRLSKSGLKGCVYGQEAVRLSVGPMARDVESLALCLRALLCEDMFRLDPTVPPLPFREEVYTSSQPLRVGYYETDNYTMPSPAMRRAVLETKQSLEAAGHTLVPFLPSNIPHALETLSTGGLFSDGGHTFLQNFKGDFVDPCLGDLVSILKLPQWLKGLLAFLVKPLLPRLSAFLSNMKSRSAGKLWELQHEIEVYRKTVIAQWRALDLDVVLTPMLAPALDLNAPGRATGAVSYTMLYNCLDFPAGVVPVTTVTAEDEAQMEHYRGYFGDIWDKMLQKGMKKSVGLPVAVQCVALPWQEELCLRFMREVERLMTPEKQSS
Procedure: as §1, §2, §3, §4, §5

Male Sprague-Dawley Rats = test: In vivo Complete Freund's Adjuvant (CFA) efficacy assay, inhibition of allodynia; parameters: species or system rat; key: (+) indicates the test compound was determined to be efficacious at 3 mpk, oral dosing; (−) indicates the test compound was determined to not be efficacious at 3 mpk, oral dosing; conditions: 3 mpk, oral dosing; PWT four hours postdose; p < 0.05 vs vehicle group
Procedure: For additional information on the CFA efficacy assay, see Jayamanne et al., Brit. J. Pharmacol. 2006, 147, 281-288. Experiments were performed on adult Male Sprague-Dawley Rats (200 g-250 g). Inflammation was induced in the left hindpaw of the rat by an intra-plantar injection of 150 uL Complete Freund's Adjuvant (CFA) (SIGMA F5881). The CFA injection immediately induces local inflammation, paw swelling, and pain that persists for at least two weeks post-injection. Baseline paw withdrawal threshold (PWT) was measured to determine the percent inhibition of allodynia using a set of Von Frey Hairs on day 4 post injection as illustrated by the Dixon Up and Down Method (W. J. Dixon, Ann. Rev. Pharmacol. Toxicol. 1980, 20:441-462). […] Following Dose administration PWT threshold was evaluated again at four hours postdose. The Sprague-Dawley rats used in this assay were purchased from Harlan, 8520 Allison Pointe Blvd., Indianapolis, Ind., 46250, U.S.A. Sprague-Dawley rats are an outbred breed of albino rats first produced by the Sprague Dawley farms in Madison, Wis., U.S.A.
Percent Inhibition of Allodynia was determined by the formula: […]
ΔPWT measurements were averaged for each treatment group and statistical comparisons between groups were made using ANOVA and Dunnett's two-tailed test. […]

SMILES	kinact/KI (rat FAAH)	kinact/KI (human FAAH)	rFAAH kinact/Ki (rat FAAH; in vitro, pH 7.4)	CFA Efficacy (Male Sprague-Dawley Rats)
Cc1noc(NC(=O)N2CCC3(CC2)C[C@H](c2ccc(OCc4cccc(F)c4)cc2)CO3)c1C [Example 47, (3R)—N-(3,4-dimethylisoxazol-5-yl)-3-{4-[(3-fluorobenzyl)oxy]phenyl}-1-oxa-8-azaspiro[4.5]decane-8-carboxamide]	6260 M⁻¹ s⁻¹	9350 M⁻¹ s⁻¹	–	(+)
Cc1noc(NC(=O)N2CCC3(CC2)CC(c2cccc(Cl)c2)CO3)c1C (single isomer, unassigned) [Example 35, 3-(3-chlorophenol)-N-(3,4-dimethylisoxazol-5-yl)-1-oxa-8-azaspiro[4.5]decane-8-carboxamide]	–	2390 M⁻¹ s⁻¹	1560 M⁻¹ s⁻¹	(+)
Cc1noc(NC(=O)N2CCC3(CC2)C[C@@H](c2ccc(OCc4ccc(Cl)cc4)cc2)CO3)c1C [Example 50, (3S)-3-{4-[(4-chlorobenzyl)oxy]phenyl}-N-(3,4-dimethylisoxazol-5-yl)-1-oxa-8-azaspiro[4.5]decane-8-carboxamide]	9110 M⁻¹ s⁻¹	7470 M⁻¹ s⁻¹	–	(−)
O=C(Nc1cccnc1)N1CCC2(CC1)C[C@@H](c1cccc(Oc3ccc(Br)cn3)c1)CO2 [Example 8]	3520 M⁻¹ s⁻¹	1950 M⁻¹ s⁻¹	–	(+)
Cc1noc(NC(=O)N2CCC3(CC2)CC(c2cccc(-c4ccc(F)cc4)c2)CO3)c1C (racemic) [Example 54, (3RS)-N-(3,4-dimethylisoxazol-5-yl)-3-(4′-fluorobiphenyl-3-yl)-1-oxa-8-azaspiro[4.5]decane-8-carboxamide]	1110 M⁻¹ s⁻¹	2040 M⁻¹ s⁻¹	–	–
Cc1noc(NC(=O)N2CCC3(CC2)CC(c2ccc(Cl)cc2F)CO3)c1C (racemic) [Example 27, (3RS)-3-(4-chloro-2-fluorophenyl)-N-(3,4-dimethylisoxazol-5-yl)-1-oxa-8-azaspiro[4.5]decane-8-carboxamide]	1140 M⁻¹ s⁻¹	2090 M⁻¹ s⁻¹	–	–
O=C(Nc1cccnn1)N1CCC2(CC1)CC(c1cccc(Oc3ccc(Cl)cn3)c1)CO2 (racemic) [Example 4, (3RS)-3-{3-[(5-chloropyridin-2-yl)oxy]phenyl}-N-pyridazin-3-yl-1-oxa-8-azaspiro[4.5]decane-8-carboxamide]	3380 M⁻¹ s⁻¹	2910 M⁻¹ s⁻¹	–	–
Cc1noc(NC(=O)N2CCC3(CC2)CC(c2ccc(OCc4ccc(F)cc4)cc2)CO3)c1C (racemic) [Example 17, (3RS)-N-(3,4-dimethylisoxazol-5-yl)-3-{4-[(4-fluorobenzyl)oxy]phenyl}-1-oxa-8-azaspiro[4.5]decane-8-carboxamide]	6690 M⁻¹ s⁻¹	6960 M⁻¹ s⁻¹	–	–

Further lines, with some results ahead:

kinact/KI (rat FAAH)	kinact/KI (human FAAH)	rFAAH kinact/Ki (rat FAAH; in vitro, pH 7.4)	SMILES	CFA Efficacy (Male Sprague-Dawley Rats)
30300 M⁻¹ s⁻¹	21500 M⁻¹ s⁻¹	–	Cn1nnnc1NC(=O)N1CCC2(CC1)C[C@H](c1ccc(OCc3ccc(C(F)(F)F)cn3)cc1)CO2 [Example 95, (3R)—N-(1-methyl-1H-tetrazol-5-yl)-3-(4-{[5-(trifluoromethyl)pyridin-2-yl]methoxy}phenyl)-1-oxa-8-azaspiro[4.5]decane-8-carboxamide]	(+)
433 M⁻¹ s⁻¹	1220 M⁻¹ s⁻¹	–	Cc1noc(NC(=O)N2CCC3(CC2)C[C@H](c2cccc(-c4ccc(Cl)cc4)c2)CO3)c1C [Example 61, (3R)-3-(4′-chlorobiphenyl-3-yl)-N-(3,4-dimethylisoxazol-5-yl)-1-oxa-8-azaspiro[4.5]decane-8-carboxamide]	(+)
1140 M⁻¹ s⁻¹	1880 M⁻¹ s⁻¹	–	Cc1noc(NC(=O)N2CCC3(CC2)CC(c2cccc(-c4ccc(OC(F)(F)F)cc4)c2)CO3)c1C (racemic) [Example 56, (3RS)-N-(3,4-dimethylisoxazol-5-yl)-3-[4′-(trifluoromethoxy)biphenyl-3-yl]-1-oxa-8-azaspiro[4.5]decane-8-carboxamide]	–
588 M⁻¹ s⁻¹	1490 M⁻¹ s⁻¹	–	Cc1noc(NC(=O)N2CCC3(CC2)C[C@H](c2cccc(-c4ccc(OC(F)(F)F)cc4)c2)CO3)c1C [Example 64, (3R)—N-(3,4-dimethylisoxazol-5-yl)-3-[4′-(trifluoromethoxy)biphenyl-3-yl]-1-oxa-8-azaspiro[4.5]decane-8-carboxamide]	–
11200 M⁻¹ s⁻¹	28400 M⁻¹ s⁻¹	–	Cn1nnnc1NC(=O)N1CCC2(CC1)C[C@H](c1ccc(OCc3cccc(F)c3)cc1)CO2 [Example 86, (3R)-3-{4-[(3-fluorobenzyl)oxy]phenyl}-N-(1-methyl-1H-tetrazol-5-yl)-1-oxa-8-azaspiro[4.5]decane-8-carboxamide]	–
707 M⁻¹ s⁻¹	2780 M⁻¹ s⁻¹	–	Cc1noc(NC(=O)N2CCC3(CC2)C[C@H](c2cccc(-c4ccc(F)c(F)c4)c2)CO3)c1C [Example 58, (3R)-3-(3′,4′-difluorobiphenyl-3-yl)-N-(3,4-dimethylisoxazol-5-yl)-1-oxa-8-azaspiro[4.5]decane-8-carboxamide]	–
